Results from US20240092784A1, “CONDENSED HETEROCYCLIC COMPOUND” (NISSAN CHEMICAL CORPORATION, priority 2020, published 2024).

What was measured:
human SPR [1] = target: T1, human SPR (Homo sapiens (Human), UniProt P35270); assay: Evaluation Example 1: Measurement of human SPR inhibitory activity (sepiapterin absorbance at 420 nm); assay type: biochemical; details: 240 minutes at room temperature
Procedure: Human SPR was prepared as described below. The full-length human SPR (1-261) cDNA was purchased from Eurofins Genomics as an artificially synthesized plasmid containing a DNA sequence optimized for the E. coli expression system so that the sequence of the expressed protein after transcription and translation matches the sequence described in UniprotKB (P35270).
Linearized insert and vector were prepared by PCR using primers designed for amplification of human SPR cDNA and primers designed to contain the thrombin recognition sequence of pET28a (Novagen) and a polyhistidine tag. Cloning was performed using In-Fusion (registered trademark) HD Cloning Kit (TaKaRa) to thereby construct a human SPR expression plasmid. The resultant human SPR expression plasmid was transformed into BL21 (DE3) competent cells (INVITROGEN).
The cells were inoculated into LB medium (1% triptone, 0.5% yeast extract, 1% sodium chloride) containing […] of kanamycin, and then precultured at 37° C. overnight. The precultured cells were inoculated into TB medium (1.2% triptone, 2.4% yeast extract, 9.4% dipotassium hydrogen phosphate, 2.2% potassium dihydrogen phosphate, 0.8% glycerin) containing […] of kanamycin, and the cultured at 37° C., to thereby induce SPR expression with 0.5 mM IPTG for four hours. After the induction, the cells were collected by centrifugation at 6,000 G for 30 minutes and washed with PBS, and the washing was discarded. The washed cells were suspended in buffer solution A (20 mM MES, pH 6.5, 100 mM sodium chloride, 1 mM DTT, 5 mM imidazole). Subsequently, the cell suspension was subjected to ultrasonic treatment to thereby homogenize the cells. The cell homogenate was clarified by centrifugation at 30,000 G for 60 minutes and then filtered with a […]. The filtrate was allowed to pass through HisTrapFF 5 mL column (GE Healthcare). The resin was washed with buffer A, and then gradient elution was performed with buffer B (20 mM MES, pH 6.5, 100 mM sodium chloride, 1 mM DTT, 500 mM imidazole). Thrombin was added to a fraction containing the SPR protein, and the mixture was dialyzed in buffer A overnight, to thereby cleave the tag. After removal of the thrombin by with Benzamidine Sepharose 4 FF (GE Healthcare), the resultant product was allowed to pass through the HisTrapFF 5 mL column, to thereby remove the tag, followed by concentration with Amicon Ultra 10,000 NMWL (Merck Millipore). The concentrate was purified by gel filtration using HiLoad 16/60 Superdex 75 pg (GE Healthcare) equilibrated with buffer C (20 mM MES, pH 6.5, 100 mM sodium chloride, 1 mM DTT). The fraction containing SPR protein was concentrated and then cryopreserved at −80° C.
Human SPR inhibitory activity was measured by using a 384-well low adsorption clear plate (Greiner) with buffer D containing 100 mM Tris-HCl (pH 7.5) (Thermo Fisher Scientific) and 0.01% bovine serum albumin (Sigma). A compound was diluted with DMSO to a concentration of 1 mM, and a 1 μL aliquot of the preparation was diluted with 250 μL of buffer D. The thus-diluted compound was dispensed into the 384-well plate at […]. Thereafter, human SPR was diluted with buffer D to 200 ng/mL and then dispensed into the 384-well plate at 20 μL/well. Subsequently, 40 μL of ultrapure water containing 120 μM Sepiapterin (WuXi AppTec) and 120 μM NADPH (Nacalai) was added to each well, and mixed with a vortex mixer, to thereby initiate the reaction. The reaction mixture was incubated at room temperature for 240 minutes, and the reaction was terminated by addition of 10 μL of ultrapure water containing 2% formic acid (Nacalai). In order to determine the amount of sepiapterin after termination of the reaction, the absorbance at 420 nm was measured by applying the 384-well plate to EnSpire multimode plate reader (Perkin Elmer). The percent inhibition (%) of human SPR by the test compound was calculated by the following formula. […]

human SPR [2] = target: T1, human SPR; assay: Evaluation Example 2: Measurement of human SPR inhibitory activity (seven concentrations, sepiapterin absorbance at 420 nm); assay type: biochemical; details: Evaluation Example 2, seven concentrations 0.14 nM to 100 nM, 240 minutes at room temperature, read-out: IC50
How it was run: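 Reactions ran 240 min at room temperature in 100 mM Tris-HCl pH 7.5 with 0.01% BSA. They contained tag-cleaved, E. coli-expressed full-length human SPR (diluted to 150 ng/mL), seven compound concentrations from 0.14 to 100 nM, and sepiapterin/NADPH added as a 120 μM/160 μM solution. Inhibition was calculated from sepiapterin absorbance at 420 nm.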

T1 sequence (P35270 whole entry): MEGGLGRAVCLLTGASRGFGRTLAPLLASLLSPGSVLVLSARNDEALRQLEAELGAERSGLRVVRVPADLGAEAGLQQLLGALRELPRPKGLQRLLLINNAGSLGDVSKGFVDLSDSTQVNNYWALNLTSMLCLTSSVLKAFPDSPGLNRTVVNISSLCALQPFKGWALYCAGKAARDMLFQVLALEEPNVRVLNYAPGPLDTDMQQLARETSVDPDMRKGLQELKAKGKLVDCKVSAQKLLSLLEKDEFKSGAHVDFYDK

| Compound | IC50 (human SPR [1]) [nM] | IC50 (human SPR [2]) [nM] |
| --- | --- | --- |
| CC(C)Cn1c(=O)c(C(=O)NC2CC2)c(O)n2ncc(/C=C/C(=O)N3CCOCC3)c12 [Synthesis Example 10, (E)-N-Cyclopropyl-7-hydroxy-4-isobutyl-3-(3-morpholino-3-oxoprop-1-en-1-yl)-5-oxo-4,5-dihydropyrazolo[1,5-a]pyrimidine-6-carboxamide] | < 1000 | 0.68 |
| CC(C)(C)Cn1c(=O)c(C(=O)NC2CC2)c(O)n2nc(Nc3ccncn3)cc12 [Synthesis Example 12, N-Cyclopropyl-7-hydroxy-4-neopentyl-5-oxo-2-(pyrimidin-4-ylamino)-4,5-dihydropyrazolo[1,5-a]pyrimidine-6-carboxamide] | < 1000 | 1.41 |
| CC(C)(C)Cn1c(=O)c(C(=O)NC2CC2)c(O)n2nc(Nc3cnccn3)cc12 [Synthesis Example 13, N-Cyclopropyl-7-hydroxy-4-neopentyl-5-oxo-2-(pyrazin-2-ylamino)-4,5-dihydropyrazolo[1,5-a]pyrimidine-6-carboxamide] | < 1000 | 1.43 |
| CC(C)(C)Cn1c(=O)c(C(=O)NC2CC2)c(O)n2nc(-c3cccnc3N)cc12 [Synthesis Example 14, 2-(2-Aminopyridin-3-yl)-N-cyclopropyl-7-hydroxy-4-neopentyl-5-oxo-4,5-dihydropyrazolo[1,5-a]pyrimidine-6-carboxamide] | < 1000 | 1.19 |
| CC(C)(C)Cn1c(=O)c(C(=O)NC2CC2)c(O)n2nc(Nc3cnc(C(F)(F)F)cn3)cc12 [Synthesis Example 15, N-Cyclopropyl-7-hydroxy-4-neopentyl-5-oxo-2-((5-(trifluoromethyl)pyrazin-2-yl)amino)-4,5-dihydropyrazolo[1,5-a]pyrimidine-6-carboxamide] | < 1000 | 1.61 |
| COc1cnc(Nc2cc3n(CC(C)(C)C)c(=O)c(C(=O)NC4CC4)c(O)n3n2)cn1 [Synthesis Example 16, N-Cyclopropyl-7-hydroxy-2-((5-methoxypyrazin-2-yl)amino)-4-neopentyl-5-oxo-4,5-dihydropyrazolo[1,5-a]pyrimidine-6-carboxamide] | < 1000 | 1.96 |
| COc1cncc(Nc2cc3n(CC(C)(C)C)c(=O)c(C(=O)NC4CC4)c(O)n3n2)n1 [Synthesis Example 17, N-Cyclopropyl-7-hydroxy-2-((6-methoxypyrazin-2-yl)amino)-4-neopentyl-5-oxo-4,5-dihydropyrazolo[1,5-a]pyrimidine-6-carboxamide] | < 1000 | 0.76 |
| CC(C)(C)Cn1c(=O)c(C(=O)NC2CC2)c(O)n2nc(N)cc12 [Synthesis Example 18, 2-Amino-N-cyclopropyl-7-hydroxy-4-neopentyl-5-oxo-4,5-dihydropyrazolo[1,5-a]pyrimidine-6-carboxamide] | < 1000 | 0.89 |
| CC(C)(C)Cn1c(=O)c(C(=O)NC2CC2)c(O)n2nc(Nc3cnc(C(N)=O)cn3)cc12 [Synthesis Example 21, 2-((5-Carbamoylpyrazin-2-yl)amino)-N-cyclopropyl-7-hydroxy-4-neopentyl-5-oxo-4,5-dihydropyrazolo[1,5-a]pyrimidine-6-carboxamide] | < 1000 | 0.96 |
| CC(C)Cn1c(=O)c(C(=O)NC2CC2)c(O)n2nc(Nc3cnccn3)cc12 [Synthesis Example 23, N-Cyclopropyl-7-hydroxy-4-isobutyl-5-oxo-2-(pyrazin-2-ylamino)-4,5-dihydropyrazolo[1,5-a]pyrimidine-6-carboxamide] | < 1000 | 1.91 |
| CC1(Cn2c(=O)c(C(=O)NC3CCC3)c(O)n3nc(Nc4cnccn4)cc23)CCOCC1 [Synthesis Example 31, N-Cyclobutyl-7-hydroxy-4-((4-methyltetrahydro-2H-pyran-4-yl)methyl)-5-oxo-2-(pyrazin-2-ylamino)-4,5-dihydropyrazolo[1,5-a]pyrimidine-6-carboxamide] | < 1000 |  |
| CC(C)(C)Cn1c(=O)c(C(=O)NC2CC2)c(O)n2nc(NC(N)=O)cc12 [Synthesis Example 32, N-Cyclopropyl-7-hydroxy-4-neopentyl-5-oxo-2-ureido-4,5-dihydropyrazolo[1,5-a]pyrimidine-6-carboxamide] | < 1000 | 3.08 |
| CC(C)(C)Cn1c(=O)c(C(=O)NC2CC2)c(O)n2nc(C(N)=O)cc12 [Synthesis Example 33, N6-Cyclopropyl-7-hydroxy-4-neopentyl-5-oxo-4,5-dihydropyrazolo[1,5-a]pyrimidine-2,6-dicarboxamide] | < 1000 | 0.65 |
| O=C(NC1CC1)c1c(O)n2ncc(C3=CCOCC3)c2n(CC2CCOCC2)c1=O [Synthesis Example 35, N-Cyclopropyl-3-(3,6-dihydro-2H-pyran-4-yl)-7-hydroxy-5-oxo-4-((tetrahydro-2H-pyran-4-yl)methyl)-4,5-dihydropyrazolo[1,5-a]pyrimidine-6-carboxamide] | < 1000 |  |
| CC(C)(C)Cn1c(=O)c(C(=O)NC2CC2)c(O)n2nc(C(=O)Nc3ccccn3)cc12 [Synthesis Example 41, N6-Cyclopropyl-7-hydroxy-4-neopentyl-5-oxo-N2-(pyridin-2-yl)-4,5-dihydropyrazolo[1,5-a]pyrimidine-2,6-dicarboxamide] | < 1000 |  |
| CC(C)Cn1c(=O)c(C(=O)NC2CC2)c(O)n2ncc(Br)c12 [Synthesis Example 104, 3-Bromo-N-cyclopropyl-7-hydroxy-4-isobutyl-5-oxo-4,5-dihydropyrazolo[1,5-a]pyrimidine-6-carboxamide] | < 1000 |  |
| O=C(NC1CC1)c1c(O)n2nc(C3CC3)cc2n(CC2CCOCC2)c1=O [Synthesis Example 135, N,2-Dicyclopropyl-7-hydroxy-5-oxo-4-((tetrahydro-2H-pyran-4-yl)methyl)-4,5-dihydropyrazolo[1,5-a]pyrimidine-6-carboxamide] | < 1000 |  |
| CC(C)(C)Cn1c(=O)c(C(=O)NC2CC2)c(O)n2ncc(/C=C/C(=O)N3CCOCC3)c12 [Synthesis Example 169, (E)-N-Cyclopropyl-7-hydroxy-3-(3-morpholino-3-oxoprop-1-en-1-yl)-4-neopentyl-5-oxo-4,5-dihydropyrazolo[1,5-a]pyrimidine-6-carboxamide] | < 1000 |  |
| COc1ccnc(Nc2cc3n(CC(C)(C)C)c(=O)c(C(=O)NC4CC4)c(O)n3n2)c1 [Synthesis Example 195, N-Cyclopropyl-7-hydroxy-2-((4-methoxypyridin-2-yl)amino)-4-neopentyl-5-oxo-4,5-dihydropyrazolo[1,5-a]pyrimidine-6-carboxamide] | < 1000 |  |
